In patent publication US20110186457A1, “NOVEL SINGLE UNIT CARBAPENEM AMINOGLYCOSIDE FORMULATIONS” (priority 2008, published 2011):
Converted amounts (≈) assume the structure as drawn. “And” between values parts separate entries of the source, which are not always exact repeats. Identical values can stand only once. Like-named read-outs stand apart in the source and are kept apart here. Blank lines part the entries; values can stand above or below the molecule they belong to.

Experiments:
[1] = system: renal tissue of Mus musculus mice; assay: Oxidative stress and kidney toxicity markers in renal tissue after repeated antibiotic administration to mice; format: in vivo
A. baumannii (1425 MTCC) = assay: Zone of inhibition; format: cell-based; parameters: unit not given beside the values
From the text: (§1) Where X and Y are respective additive agents mixed in the formulation with water for injection.

[2] = system: K. pneumoniae (10031 ATCC); assay: Zone of inhibition; format: cell-based; parameters: unit not given beside the values
From the text: as §1

[3] = system: P. aeruginosa (1688 MTCC); assay: Zone of inhibition; format: cell-based; parameters: unit not given beside the values
From the text: as §1

C. braakii (2690 MTCC) = assay: Zone of inhibition; format: cell-based; parameters: unit not given here
From the text: as §1

E. coli (1687 MTCC) = assay: Zone of inhibition; format: cell-based; parameters: unit not given here
From the text: as §1

P. vulgaris (426 MTCC) = assay: Zone of inhibition; format: cell-based; parameters: unit not given here
From the text: as §1

S. aureus (737 MTCC) = assay: Zone of inhibition; format: cell-based; parameters: unit not given here
From the text: as §1

[4] = system: K. pneumoniae 10031(ATCC); assay: In-vitro microbial efficacy (MIC); format: cell-based
P. vulgaris MTCC 426 = assay: In-vitro microbial efficacy (MIC); format: cell-based
P. aeruginosa MTCC 1688 = assay: In-vitro microbial efficacy (MIC); format: cell-based
E. coli MTCC 1687 = assay: In-vitro microbial efficacy (MIC); format: cell-based
B. subtilis MTCC 736 = assay: In-vitro microbial efficacy (MIC); format: cell-based
E. cloacae MTCC 509 = assay: In-vitro microbial efficacy (MIC); format: cell-based
S. aureus MTCC 737 = assay: In-vitro microbial efficacy (MIC); format: cell-based
C. braakii MTCC 2690 = assay: In-vitro microbial efficacy (MIC); format: cell-based
M. smegmatis MTCC 995 = assay: In-vitro microbial efficacy (MIC); format: cell-based
A. baumanii MTCC 1425 = assay: In-vitro microbial efficacy (MIC); format: cell-based
N. mucosa MTCC 1722 = assay: In-vitro microbial efficacy (MIC); format: cell-based
MRSA = assay: In-vitro microbial efficacy (MIC); format: cell-based

Compound: NCC[C@H](O)C(=O)N[C@@H]1C[C@H](N)[C@@H](O[C@H]2O[C@H](CN)[C@@H](O)[C@H](O)[C@H]2O)[C@H](O)[C@H]1O[C@H]1O[C@H](CO)[C@@H](O)[C@H](N)[C@H]1O [Amikacin]
- Catalase activity in renal tissue ([1]; mouse, in vivo): decrease
- Glutathione reductase activity in renal tissue ([1]; mouse, in vivo): decrease
- MDA activity in renal tissue ([1]; mouse, in vivo): increase
- SOD activity in renal tissue ([1]; mouse, in vivo): decrease

Compound: C[C@@H](O)[C@H]1C(=O)N2C(C(=O)O)=C(S[C@@H]3CN[C@H](C(=O)Nc4cccc(C(=O)O)c4)C3)[C@H](C)[C@H]12 [Ertapenem]
- Zone of Inhibition (A. baumannii (1425 MTCC); drug concentration 0.005 mcg): Nil
- Zone of Inhibition (A. baumannii (1425 MTCC); drug concentration 0.05 mcg): 13.37
- Zone of Inhibition (A. baumannii (1425 MTCC); drug concentration 0.5 mcg): 18.25
- Zone of Inhibition ([2]; drug concentration 0.005 mcg): Nil
- Zone of Inhibition ([2]; drug concentration 0.05 mcg): Nil
- Zone of Inhibition ([2]; drug concentration 0.5 mcg): 15.90
- Zone of Inhibition ([3]; drug concentration 0.005 mcg): Nil
- Zone of Inhibition ([3]; drug concentration 0.05 mcg): Nil
- Zone of Inhibition ([3]; drug concentration 0.5 mcg): Nil
- Zone of Inhibition (C. braakii (2690 MTCC); drug concentration 0.005 mcg): 10.52
- Zone of Inhibition (C. braakii (2690 MTCC); drug concentration 0.05 mcg): 18.95
- Zone of Inhibition (C. braakii (2690 MTCC); drug concentration 0.5 mcg): 27.88
- Zone of Inhibition (E. coli (1687 MTCC); drug concentration 0.005 mcg): 10.10
- Zone of Inhibition (E. coli (1687 MTCC); drug concentration 0.05 mcg): 15.49
- Zone of Inhibition (E. coli (1687 MTCC); drug concentration 0.5 mcg): 21.45
- Zone of Inhibition (E. coli (1687 MTCC); drug concentration 1.0 mcg): 23.39
- Zone of Inhibition (P. vulgaris (426 MTCC); drug concentration 0.005 mcg): 9.54
- Zone of Inhibition (P. vulgaris (426 MTCC); drug concentration 0.05 mcg): 16.74
- Zone of Inhibition (P. vulgaris (426 MTCC); drug concentration 0.5 mcg): 18.50
- Zone of Inhibition (S. aureus (737 MTCC); drug concentration 0.005 mcg): 9.44
- Zone of Inhibition (S. aureus (737 MTCC); drug concentration 0.05 mcg): 14.55
- Zone of Inhibition (S. aureus (737 MTCC); drug concentration 0.5 mcg): 21.33

- MIC [4]: 8 µg/mL (≈ 16.8 µM)
- MIC (P. vulgaris MTCC 426): 4 µg/mL (≈ 8.38 µM)
- MIC (P. aeruginosa MTCC 1688): 8 µg/mL (≈ 16.8 µM)
- MIC (E. coli MTCC 1687): 0.125 µg/mL (≈ 0.262 µM)
- MIC (B. subtilis MTCC 736): 8 µg/mL (≈ 16.8 µM)
- MIC (E. cloacae MTCC 509): 2 µg/mL (≈ 4.19 µM)
- MIC (S. aureus MTCC 737): 8 µg/mL (≈ 16.8 µM)
- MIC (C. braakii MTCC 2690): 2 µg/mL (≈ 4.19 µM)
- MIC (M. smegmatis MTCC 995): 2 µg/mL (≈ 4.19 µM)
- MIC (A. baumanii MTCC 1425): 2 µg/mL (≈ 4.19 µM)
- MIC (N. mucosa MTCC 1722): 1 µg/mL (≈ 2.09 µM)
- MIC (MRSA): 4 µg/mL (≈ 8.38 µM)
Compound: CCN[C@@H]1C[C@H](N)[C@@H](O[C@H]2O[C@H](CN)CC[C@H]2N)[C@H](O)[C@H]1O[C@H]1OC[C@](C)(O)[C@H](NC)[C@H]1O [Etimicin]
- Zone of Inhibition (A. baumannii (1425 MTCC); drug concentration 0.005 mcg): Nil
- Zone of Inhibition (A. baumannii (1425 MTCC); drug concentration 0.5 mcg): 13.5 and 12.88
- Zone of Inhibition ([2]; drug concentration 0.005 mcg): nil and Nil
- Zone of Inhibition ([2]; drug concentration 0.05 mcg): nil and Nil
- Zone of Inhibition ([2]; drug concentration 0.5 mcg): 16.64 and 16.50
- Zone of Inhibition ([3]; drug concentration 0.005 mcg): Nil
- Zone of Inhibition ([3]; drug concentration 0.05 mcg): Nil
- Zone of Inhibition ([3]; drug concentration 0.5 mcg): 12.49 and 12.60
- Zone of Inhibition (C. braakii (2690 MTCC); drug concentration 0.005 mcg): Nil
- Zone of Inhibition (C. braakii (2690 MTCC); drug concentration 0.05 mcg): Nil
- Zone of Inhibition (C. braakii (2690 MTCC); drug concentration 0.5 mcg): 18.70 and 19.10
- Zone of Inhibition (E. coli (1687 MTCC); drug concentration 0.005 mcg): Nil
- Zone of Inhibition (E. coli (1687 MTCC); drug concentration 0.05 mcg): 9.42 and 9.31
- Zone of Inhibition (E. coli (1687 MTCC); drug concentration 0.5 mcg): 16.50 and 15.70
- Zone of Inhibition (E. coli (1687 MTCC); drug concentration 1.0 mcg): 17.57
- Zone of Inhibition (P. vulgaris (426 MTCC); drug concentration 0.005 mcg): Nil
- Zone of Inhibition (P. vulgaris (426 MTCC); drug concentration 0.05 mcg): Nil
- Zone of Inhibition (P. vulgaris (426 MTCC); drug concentration 0.5 mcg): 15.19 and 13.97
- Zone of Inhibition (S. aureus (737 MTCC); drug concentration 0.005 mcg): Nil
- Zone of Inhibition (S. aureus (737 MTCC); drug concentration 0.05 mcg): 11.15 and 10.12
- Zone of Inhibition (S. aureus (737 MTCC); drug concentration 0.5 mcg): 17.50 and 16.65
- Creatnine level in renal tissue ([1]; Mus musculus mice, repeated administration for 7 days consecutively (FIG. 5)): significantly decreased
- SOD activity in renal tissue ([1]; mice, after administration of antibiotic (FIG. 1)): decrease
- Catalase activity in renal tissue ([1]; mice, after administration of antibiotic (FIG. 2)): decrease
- MDA activity in renal tissue ([1]; mice, after administration of antibiotic (FIG. 3)): increase
- Glutathione reductase activity in renal tissue ([1]; mice, after administration of antibiotic (FIG. 4)): decrease

Compound: C[C@@H](O)[C@H]1C(=O)N2C(C(=O)O)=C(S[C@@H]3CN[C@H](C(=O)N(C)C)C3)[C@H](C)[C@H]12 [Meropenem]
- MIC ([4]; Klebsiella pneumoniae, read-out: MIC): 1 µg/mL (≈ 2.61 µM)
- MIC (P. vulgaris MTCC 426; Proteus vulgaris, MTCC426, read-out: MIC): 0.0625 µg/mL (≈ 0.163 µM)
- MIC (P. aeruginosa MTCC 1688; Pseudomonas aeruginosa, MTCC1688, read-out: MIC): 2 µg/mL (≈ 5.22 µM)
- MIC (E. coli MTCC 1687; Escherichia coli, MTCC1687, read-out: MIC): 0.0625 µg/mL (≈ 0.163 µM)
- MIC (B. subtilis MTCC 736; Bacillus subtilis, MTCC736, read-out: MIC): 2 µg/mL (≈ 5.22 µM)
- MIC (E. cloacae MTCC 509; Enterobacter cloacae, MTCC509, read-out: MIC): 0.125 µg/mL (≈ 0.326 µM)
- MIC (S. aureus MTCC 737; Staphylococcus aureus, MTCC737, read-out: MIC): 0.5 µg/mL (≈ 1.3 µM)
- MIC (C. braakii MTCC 2690; Citrobacter braakii, MTCC2690, read-out: MIC): 0.25 µg/mL (≈ 0.652 µM)
- MIC (M. smegmatis MTCC 995; Mycolicibacterium smegmatis, MTCC995, read-out: MIC): 0.25 µg/mL (≈ 0.652 µM)
- MIC (A. baumanii MTCC 1425; Acinetobacter baumannii, MTCC1425, read-out: MIC): 0.125 µg/mL (≈ 0.326 µM)
- MIC (N. mucosa MTCC 1722; read-out: MIC): 0.125 µg/mL (≈ 0.326 µM)
- MIC (MRSA; Staphylococcus aureus, read-out: MIC): 0.5 µg/mL (≈ 1.3 µM)
- Zone of Inhibition (A. baumannii (1425 MTCC); drug concentration 0.005 mcg): Nil
- Zone of Inhibition (A. baumannii (1425 MTCC); drug concentration 0.05 mcg): 14.50
- Zone of Inhibition (A. baumannii (1425 MTCC); drug concentration 0.5 mcg): 19.81
- Zone of Inhibition ([2]; drug concentration 0.005 mcg): Nil
- Zone of Inhibition ([2]; drug concentration 0.05 mcg): 14.36
- Zone of Inhibition ([2]; drug concentration 0.5 mcg): 23.87
- Zone of Inhibition ([3]; drug concentration 0.005 mcg): Nil
- Zone of Inhibition ([3]; drug concentration 0.05 mcg): 13.64
- Zone of Inhibition ([3]; drug concentration 0.5 mcg): 21.85
- Zone of Inhibition (C. braakii (2690 MTCC); drug concentration 0.005 mcg): 9.35
- Zone of Inhibition (C. braakii (2690 MTCC); drug concentration 0.05 mcg): 23.35
- Zone of Inhibition (C. braakii (2690 MTCC); drug concentration 0.5 mcg): 28.60
- Zone of Inhibition (E. coli (1687 MTCC); drug concentration 0.005 mcg): 8.88
- Zone of Inhibition (E. coli (1687 MTCC); drug concentration 0.05 mcg): 15.70
- Zone of Inhibition (E. coli (1687 MTCC); drug concentration 0.5 mcg): 22.97
- Zone of Inhibition (P. vulgaris (426 MTCC); drug concentration 0.005 mcg): 10.84
- Zone of Inhibition (P. vulgaris (426 MTCC); drug concentration 0.05 mcg): 18.01
- Zone of Inhibition (P. vulgaris (426 MTCC); drug concentration 0.5 mcg): 21.32
- Zone of Inhibition (S. aureus (737 MTCC); drug concentration 0.005 mcg): 11.45
- Zone of Inhibition (S. aureus (737 MTCC); drug concentration 0.05 mcg): 16.29
- Zone of Inhibition (S. aureus (737 MTCC); drug concentration 0.5 mcg): 22.76
- Catalase activity in renal tissue ([1]; mouse, in vivo): decrease
- Glutathione reductase activity in renal tissue ([1]; mouse, in vivo): decrease
- MDA activity in renal tissue ([1]; mouse, in vivo): increase
- SOD activity in renal tissue ([1]; mouse, in vivo): decrease

Compound: NC[C@H]1O[C@H](O[C@H]2[C@H](O)[C@@H](O[C@H]3O[C@H](CO)[C@@H](O)[C@H](N)[C@H]3O)[C@H](N)C[C@@H]2N)[C@H](N)C[C@@H]1O [Tobramycin]
- Catalase activity in renal tissue ([1]; mouse, in vivo): decrease
- Glutathione reductase activity in renal tissue ([1]; mouse, in vivo): decrease
- MDA activity in renal tissue ([1]; mouse, in vivo): increase
- SOD activity in renal tissue ([1]; mouse, in vivo): decrease
